# Patent US20140121100A1, “COMPOSITIONS AND METHODS FOR ENHANCING PLANT GROWTH” (NOVOZYMES BIOAG A/S, priority 2012, published 2014)
# Where two headings read alike, the source gives them in different places.
# Columns and labels:
# corn = conditions: GSH 100 mg/L seed treatment; petriplates, dark, 24° C., 7 days
# Experimental: Instead of growing the seeds in a greenhouse, the seeds were grown in […] polystyrene petriplates (Fisherband) on 5⅜″ germination paper circle (Anchor Paper Co., Saint Paul, Mn) moistened with 12 ml distilled water. Four petriplates were prepared per treatment as 4 replicates. Petri plates were then placed in the dark in under-counter cabinets in the lab at 24° C. for 7 days. After 7 days, seedlings were removed from the cabinets, exposed to light, and their main roots severed and measured for various root parameters with WinRhizo root scanner (Regent Instruments Inc., WinRhizo Pro 2007). For all statistical analysis, student t-test was applied using JMPv.9 statistical software.
# corn seedling growth [1] = test: Effect of GSH and LCO on corn seedling growth (greenhouse pots, WinRhizo); type: in vivo; conditions: seed treatment (LCO 10^−8M), harvested after 2 weeks
# Experimental: LCO stock solution was prepared by dissolving LCO in 50:50 ethanol/water solvent. Seeds were then treated according to the protocols of Example 1. Seeds were planted 1 day after treatment in greenhouse under artificial lighting in 5'' plastic pots containing 1:1 sand/perlite mix. […] Plants were allowed to grow for 2 weeks and then harvested. A non-destructive harvest was made by washing sand/perlite soil mix under running tap water. After cleaning, each plant was placed on a clear plexiglass-tray containing enough water to spread the roots in liquid. The tray was then placed on the WinRhizo root scanner (Regent Instruments Inc., WinRhizo Pro 2007) for measurement.
# corn seedling growth [2] = conditions: for Plant root dry weight / Plant shoot dry weight / Total plant dry weight / Chlorophyll content: 2 weeks after; for Chlorophyll content: SPAD chlorophyll meter; for Plant height: one wk after (8 days after planting)
# Experimental: In a clear plastic bag (25 cm×25 cm), 100 gram seeds were treated with 1 ml of water (as control) and 1 mL of the 100, 200, and 500 mg/L treatment solutions separately and shaken vigorously. One day following treatment, seeds were planted in 6″ plastic pots containing sand:perlite 1:1 mix. There were 10 pots/treatment; each pot being a replicate. Plant height was measured 8 days after planting. Plant leaf greenness and final harvest were made 2 weeks after planting. Plant leaf greenness was measured using a SPAD chlorophyll meter (Spectrum Technology, USA).
# chickpea = chickpea roots; seed treatment; petriplates, dark, 24° C., 7 days
# Experimental: (§1) Seeds of chickpea, cotton, pinto bean and soybean were treated according to the protocols of Example 1. One day after seed treatment, 10 seeds of each crop variety were plated in 150 mm×15 mm polystyrene petriplates (Fisherband) on 5⅜″ germination paper circle (Anchor Paper Co., Saint Paul, Mn) moistened with 12 ml distilled water. Four petriplates were prepared per treatment as 4 replicates. Petri plates were then placed in the dark in under-counter cabinets in the lab at 24° C. for 7 days. After 7 days, seedlings were removed from the cabinets, exposed to light, and their main roots severed and measured for various root parameters with WinRhizo root scanner (Regent Instruments Inc., WinRhizo Pro 2007). For all statistical analysis, student t-test was applied using JMPv.9 statistical software.
# soybean = soybean roots; seed treatment; petriplates, dark, 24° C., 7 days
# Experimental: as §1
smiles,measurement,setting,value
"N[C@@H](CCC(=O)N[C@@H](CS)C(=O)NCC(=O)O)C(=O)O [GSH, glutathione]","Length, Total",corn,21.890a* cm
same,"Volume, Total",corn,0.150a* cm^3
same,Coleoptile Length,corn seedling growth [1],9.814b cm
same,Coleoptile Surface area,corn seedling growth [1],1.789b cm^2
same,Coleoptile Volume,corn seedling growth [1],0.236b cm^2
same,Root Diameter,corn seedling growth [1],0.653a mm
same,Root Length,corn seedling growth [1],150.89a cm
same,Root Surface area,corn seedling growth [1],30.47a cm^2
same,Root Volume,corn seedling growth [1],0.494a cm^2
same,Plant root dry weight,corn seedling growth [2]; GSH 100 mg/L seed treatment,0.244a mg
same,Plant shoot dry weight,corn seedling growth [2]; GSH 100 mg/L seed treatment,0.3111ab mg
same,Total plant dry weight,corn seedling growth [2]; GSH 100 mg/L seed treatment,0.555a mg
same,Chlorophyll content,corn seedling growth [2]; GSH 100 mg/L seed treatment,27.93a
same,Plant height,corn seedling growth [2]; GSH 100 mg/L seed treatment,12.07a cm
same,Plant root dry weight,corn seedling growth [2]; GSH 200 mg/L seed treatment,0.231ab mg
same,Plant shoot dry weight,corn seedling growth [2]; GSH 200 mg/L seed treatment,0.3116ab mg
same,Total plant dry weight,corn seedling growth [2]; GSH 200 mg/L seed treatment,0.542a mg
same,Chlorophyll content,corn seedling growth [2]; GSH 200 mg/L seed treatment,27.55a
same,Plant height,corn seedling growth [2]; GSH 200 mg/L seed treatment,11.91a cm
same,Plant root dry weight,corn seedling growth [2]; GSH 500 mg/L seed treatment,0.266b mg
same,Plant shoot dry weight,corn seedling growth [2]; GSH 500 mg/L seed treatment,0.339a mg
same,Total plant dry weight,corn seedling growth [2]; GSH 500 mg/L seed treatment,0.565a mg
same,Chlorophyll content,corn seedling growth [2]; GSH 500 mg/L seed treatment,27.83a
same,Plant height,corn seedling growth [2]; GSH 500 mg/L seed treatment,11.66ab cm
same,Length,chickpea,94.671a cm
same,Surface area,chickpea,23.142a cm^2
same,Length,soybean,146.373a cm
same,Surface area,soybean,25.691a cm^2
